Test results as given in patent US9187465B2, “Oxazole tyrosine kinase inhibitors” (Sareum Limited, priority 2007, dated 2015).
Read-outs that look alike come from different tables or passages of the source.

Tests used:
human FLT4 = target: T1, human FLT4 (Homo sapiens, UniProt P35916); experiment: FLT4 kinase assay (DELFIA enzyme inhibition); type: biochemical
T1 construct: a construct expressing the human FLT4 (789-1207) with an amino terminal GST tag; host or cells: Sf9 insect cells (baculovirus)
Procedure: A GST-kinase fusion protein of 70 KDa was produced using sf9 baculovirus expression system, with a construct expressing the human FLT4 (789-1207) with an amino terminal GST tag. The protein was purified by affinity chromatography using glutathione-agarose followed by separation on a gel filtration column.
FLT4 enzyme activity is determined using a Dissociation Enhanced Lanthanide Fluorescent Immunoassay (DELFIA) with a peptide substrate derived from the MET (Tyr 1253) peptide […] with a core sequence […].
The amount of phosphorylated peptide produced is detected by means of a phospho-Tyrosine specific Europium-labelled antibody using Time-Resolved Fluorescence at Excitation 360-35 nm and Emission 620-35 nm.
Assay reactions are set up in a 25 uL final volume on a 96 well plate. […] The reaction is allowed to proceed for 30 minutes at room temperature before stopping with 100 uL Stop solution comprising of 100 mM EDTA, 1×BSA blocker in TBS (Perbio) and 0.05% Surfact-Amps20 (Perbio).
The stopped reaction is transferred to a black 96-well Neutravidin-coated plate (Perbio) and incubated for 30 minutes to capture the biotinylated peptide substrate. After washing wells 3 times with 200 uL TBS/T buffer, Anti-Phospho-Tyr-100 antibody labelled with Eu—N1 (Perkin Elmer AD0159) is added to all wells for 60 minutes at room temperature. After a repeat washing step, DELFIA Enhancement solution (Perkin Elmer) is added to all wells for 5 minutes and the fluorescence measured on a plate reader Analyst HT (Molecular Devices).
The % inhibition of the activity is calculated and plotted in order to determine the concentration of test compound required to inhibit 50% of the enzyme activity (IC50).

human Aurora A = target: T2, human Aurora A (Homo sapiens, UniProt O14965); experiment: Aurora A kinase assay (DELFIA enzyme inhibition); type: biochemical
T2 construct: Histidine tag (N); host or cells: Sf9 insect cells (baculovirus)
T2 sequence (O14965 1-403): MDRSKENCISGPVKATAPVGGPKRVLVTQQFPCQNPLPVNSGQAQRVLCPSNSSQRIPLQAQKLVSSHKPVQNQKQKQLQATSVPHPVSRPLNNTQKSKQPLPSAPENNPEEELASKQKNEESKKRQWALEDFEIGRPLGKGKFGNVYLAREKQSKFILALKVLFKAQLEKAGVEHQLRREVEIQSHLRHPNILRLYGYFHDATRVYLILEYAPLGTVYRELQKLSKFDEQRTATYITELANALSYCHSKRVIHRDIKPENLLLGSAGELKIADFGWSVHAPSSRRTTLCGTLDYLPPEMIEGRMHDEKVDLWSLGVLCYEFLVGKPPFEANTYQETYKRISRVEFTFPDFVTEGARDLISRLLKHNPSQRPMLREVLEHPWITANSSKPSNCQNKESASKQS
Procedure: The protein was purified by one-step affinity chromatography using nickel-agarose […]
Assay reactions are set up in a 25 uL final volume on a 96 well plate. […] The reaction is allowed to proceed for 30 minutes at room temperature before stopping with 100 μL Stop solution comprising of 100 mM EDTA, 1×BSA blocker in TBS (Perbio) and 0.05% Surfact-Amps20 (Perbio).
The stopped reaction is transferred to a black 96-well Neutravidin-coated plate (Perbio) and incubated for 30 minutes to capture the biotinylated peptide substrate. […] After repeating the washing step, the plate is further incubated for one hour with Europium-labelled anti-rabbit antibody (Perkin Elmer AD0105). The wash step is repeated for a final time before DELFIA Enhancement solution (Perkin Elmer) is added to all wells for 5 minutes and the fluorescence measured on a plate reader Analyst HT (Molecular Devices).

T1 sequence (P35916 789-1207): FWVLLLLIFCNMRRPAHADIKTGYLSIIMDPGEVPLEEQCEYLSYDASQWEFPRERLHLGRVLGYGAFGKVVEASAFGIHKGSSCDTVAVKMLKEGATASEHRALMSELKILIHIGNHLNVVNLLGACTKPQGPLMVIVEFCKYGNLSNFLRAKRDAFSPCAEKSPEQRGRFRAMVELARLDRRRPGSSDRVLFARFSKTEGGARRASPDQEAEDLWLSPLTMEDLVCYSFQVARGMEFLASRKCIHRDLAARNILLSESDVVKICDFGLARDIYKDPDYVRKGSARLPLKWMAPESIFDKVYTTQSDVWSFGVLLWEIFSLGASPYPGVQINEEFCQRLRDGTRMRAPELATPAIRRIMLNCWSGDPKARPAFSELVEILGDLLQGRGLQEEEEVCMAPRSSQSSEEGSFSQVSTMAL

## COc1ccc(-c2nc(-c3ccc(C)cc3)[nH]c2C(N)=O)cc1 [Example A-8, 4-(4-methoxyphenyl)-2-p-tolyl-1H-imidazole-5-carboxamide]
Human FLT4; read-out: FLT4 IC50
  IC50: < 100 µM
Human Aurora A; read-out: Aurora A IC50
  IC50: < 100 µM

## COc1ccc(-c2oc(-c3c(F)cccc3F)nc2C(N)=O)cc1 [Example E-2, 2-(2,6-difluorophenyl)-5-(4-methoxyphenyl)oxazole-4-carboxamide]
Human FLT4; read-out: FLT4 IC50
  IC50: < 10 µM
Human Aurora A; read-out: Aurora A IC50
  IC50: < 100 µM

## NC(=O)c1nc(-c2c(F)cccc2F)oc1-c1ccncc1 [Example F-8, 2-(2,6-difluorophenyl)-5-(pyridin-4-yl)oxazole-4-carboxamide]
Human FLT4; read-out: FLT4 IC50
  IC50: < 10 µM
Human Aurora A; read-out: Aurora A IC50
  IC50: < 10 µM

## NC(=O)c1nc(-c2ccc3cc[nH]c3c2)oc1-c1ccc(N2CCNCC2)cc1 [Example M-16, 2-(1H-indol-6-yl)-5-(4-(piperazin-1-yl)phenyl)oxazole-4-carboxamide]
Human FLT4; read-out: FLT4 IC50
  IC50: < 10 µM
Human Aurora A; read-out: Aurora A IC50
  IC50: < 10 µM

## NC(=O)c1nc(-c2c(F)cccc2F)oc1-c1ccc(OCCN2CCCC(O)C2)cc1 (centres unmarked) [Example S-17, 2-(2,6-difluorophenyl)-5-(4-(2-(3-hydroxypiperidin-1-yl)ethoxy)phenyl)oxazole-4-carboxamide]
Human FLT4; read-out: FLT4 IC50
  IC50: < 10 µM
Human Aurora A; read-out: Aurora A IC50
  IC50: < 10 µM

## NC(=O)c1nc(-c2c(F)cccc2F)oc1Nc1ccc(C(=O)NC[C@@H]2CCCNC2)cc1 [Example Q-55, (R)-5-(4-((piperidin-3-ylmethyl)carbamoyl)phenylamino)-2-(2,6-difluorophenyl)oxazole-4-carboxamide]
Human FLT4; read-out: FLT4 IC50
  IC50: < 10 µM
Human Aurora A; read-out: Aurora A IC50
  IC50: < 10 µM

## NC(=O)c1nc(-c2c(F)cccc2F)oc1-c1ccc(OCCN2CCC(CO)CC2)cc1 [Example S-18, 2-(2,6-difluorophenyl)-5-(4-(2-(4-(hydroxymethyl)piperidin-1-yl)ethoxy)phenyl)oxazole-4-carboxamide]
Human FLT4; read-out: FLT4 IC50
  IC50: < 10 µM
Human Aurora A; read-out: Aurora A IC50
  IC50: < 10 µM

## COc1ccc(-c2nc(-c3cccnc3)[nH]c2C(N)=O)cc1 [Example A-12, 4-(4-methoxyphenyl)-2-(pyridin-3-yl)-1H-imidazole-5-carboxamide]
Human FLT4; read-out: FLT4 IC50
  IC50: < 100 µM
Human Aurora A; read-out: Aurora A IC50
  IC50: < 100 µM

## NC(=O)c1nc(-c2c(F)cccc2F)oc1Nc1ccc(C(=O)NC2CN3CCC2CC3)cc1 (centres unmarked) [Example U-10, 2-(2,6-difluorophenyl)-5-(4-(quinuclidin-3-ylcarbamoyl)phenylamino)oxazole-4-carboxamide]
Human FLT4
  IC50: < 10 µM
Human Aurora A
  IC50: < 10 µM

## CCN(CCO)CCOc1ccc(-c2oc(-c3c(F)cccc3F)nc2C(N)=O)cc1 [Example S-19, 2-(2,6-difluorophenyl)-5-(4-(2-(ethyl(2-hydroxyethyl)amino)ethoxy)phenyl)oxazole-4-carboxamide]
Human FLT4; read-out: FLT4 IC50
  IC50: < 10 µM
Human Aurora A; read-out: Aurora A IC50
  IC50: < 10 µM

## CN1CCN(c2ccc(Nc3oc(-c4c(F)cccc4F)nc3C(N)=O)cn2)CC1 [Example Q-49, 2-(2,6-difluorophenyl)-5-(6-(4-methylpiperazin-1-yl)pyridin-3-ylamino)oxazole-4-carboxamide]
Human FLT4; read-out: FLT4 IC50
  IC50: < 10 µM
Human Aurora A; read-out: Aurora A IC50
  IC50: < 10 µM

## NC(=O)c1nc(-c2c(F)cccc2F)oc1-c1cccc(C(=O)N2CCCCC2)c1 [Example F-31, 2-(2,6-Difluorophenyl)-5-(3-(piperidine-1-carbonyl)phenyl)oxazole-4-carboxamide]
Human FLT4; read-out: FLT4 IC50
  IC50: < 10 µM
Human Aurora A; read-out: Aurora A IC50
  IC50: < 100 µM

## CS(=O)(=O)c1ccc(F)c(Nc2oc(-c3c(F)cccc3F)nc2C(N)=O)c1 [Example Q-44, 2-(2,6-difluorophenyl)-5-(2-fluoro-5-(methylsulfonyl)phenylamino)oxazole-4-carboxamide]
Human FLT4; read-out: FLT4 IC50
  IC50: < 10 µM
Human Aurora A; read-out: Aurora A IC50
  IC50: < 100 µM

## COc1ccc(-c2nc(-c3cccc(OC)c3)[nH]c2C(N)=O)cc1 [Example A-4, 2-(3-methoxyphenyl)-4-(4-methoxyphenyl)-1H-imidazole-5-carboxamide]
Human FLT4; read-out: FLT4 IC50
  IC50: < 100 µM
Human Aurora A; read-out: Aurora A IC50
  IC50: < 100 µM

## NC(=O)c1nc(-c2c(F)cccc2F)oc1-c1ccc(OCC2CCNCC2)cc1 [Example S-14, 2-(2,6-difluorophenyl)-5-(4-(piperidin-4-ylmethoxy)phenyl)oxazole-4-carboxamide]
Human FLT4; read-out: FLT4 IC50
  IC50: < 10 µM
Human Aurora A; read-out: Aurora A IC50
  IC50: < 10 µM

## NC(=O)c1nc(-c2cccc3[nH]ncc23)oc1Nc1ccc(N2CCNCC2)cc1 [Example Q-59, 2-(1H-indazol-4-yl)-5-(4-(piperazin-1-yl)phenylamino)oxazole-4-carboxamide]
Human FLT4; read-out: FLT4 IC50
  IC50: < 10 µM
Human Aurora A; read-out: Aurora A IC50
  IC50: < 10 µM

## NCC1CCN(c2ccc(Nc3oc(-c4c(F)cccc4F)nc3C(N)=O)cc2)CC1 [Example Q-18, 5-(4-(4-(aminomethyl)piperidin-1-yl)phenylamino)-2-(2,6-difluorophenyl)oxazole-4-carboxamide]
Human FLT4; read-out: FLT4 IC50
  IC50: < 10 µM
Human Aurora A; read-out: Aurora A IC50
  IC50: < 10 µM

## NC(=O)c1nc(-c2c(F)cccc2F)oc1Nc1ccc(C(=O)NCCN2CCOCC2)cc1 [Example U-9, 5-(4-((2-morpholinoethyl)carbamoyl)phenylamino)-2-(2,6-difluorophenyl)oxazole-4-carboxamide]
Human FLT4; read-out: FLT4 IC50
  IC50: < 10 µM
Human Aurora A; read-out: Aurora A IC50
  IC50: < 10 µM

## NC(=O)c1nc(-c2c(F)cccc2F)oc1Nc1ccc(N2CCOCC2)nc1 [Example Q-48, 2-(2,6-difluorophenyl)-5-(6-morpholinopyridin-3-ylamino)oxazole-4-carboxamide]
Human FLT4; read-out: FLT4 IC50
  IC50: < 10 µM
Human Aurora A; read-out: Aurora A IC50
  IC50: < 10 µM

## NC(=O)c1nc(Nc2ccnn2Cc2ccccc2)oc1-c1ccc(N2CCNCC2)cc1 [Example R-18, 2-(1-benzyl-1H-pyrazol-5-ylamino)-5-(4-(piperazin-1-yl)phenyl)oxazole-4-carboxamide]
Human FLT4; read-out: FLT4 IC50
  IC50: < 10 µM
Human Aurora A; read-out: Aurora A IC50
  IC50: < 10 µM

## COc1ccc(-c2nc(-c3ccccc3OC)[nH]c2C(N)=O)cc1 [Example A-3, 2-(2-methoxyphenyl)-4-(4-methoxyphenyl)-1H-imidazole-5-carboxamide]
Human FLT4; read-out: FLT4 IC50
  IC50: < 100 µM
Human Aurora A; read-out: Aurora A IC50
  IC50: < 100 µM

## NCCCNC(=O)c1ccc(Nc2oc(-c3c(F)cccc3F)nc2C(N)=O)cc1 [Example Q-51, 5-(4-((3-aminopropyl)carbamoyl)phenylamino)-2-(2,6-difluorophenyl)oxazole-4-carboxamide]
Human FLT4; read-out: FLT4 IC50
  IC50: < 10 µM
Human Aurora A; read-out: Aurora A IC50
  IC50: < 10 µM

## COc1ccc(-c2nc(-c3ccc(OC)cc3)c(C(N)=O)[nH]2)cc1 [Example A-5, 2,4-bis(4-methoxyphenyl)-1H-imidazole-5-carboxamide]
Human FLT4; read-out: FLT4 IC50
  IC50: < 100 µM
Human Aurora A; read-out: Aurora A IC50
  IC50: < 100 µM

## NC(=O)c1nc(-c2c(F)cccc2F)oc1Nc1ccc(C(=O)N[C@@H]2CCNC2)cc1 [Example U-6, (R)-2-(2,6-difluorophenyl)-5-(4-(pyrrolidin-3-ylcarbamoyl)phenylamino)oxazole-4-carboxamide]
Human FLT4; read-out: FLT4 IC50
  IC50: < 10 µM
Human Aurora A; read-out: Aurora A IC50
  IC50: < 10 µM

## NC(=O)c1nc(-c2c(F)cccc2F)oc1-c1ccc(OCCNCCO)cc1 [Example S-21, 2-(2,6-difluorophenyl)-5-(4-(2-(2-hydroxyethylamino)ethoxy)phenyl)oxazole-4-carboxamide]
Human FLT4; read-out: FLT4 IC50
  IC50: < 10 µM
Human Aurora A; read-out: Aurora A IC50
  IC50: < 10 µM

## NC(=O)c1nc(-c2c(F)cccc2F)oc1-c1ccsc1 [Example F-5, 2-(2,6-difluorophenyl)-5-(thiophen-3-yl)oxazole-4-carboxamide]
Human FLT4; read-out: FLT4 IC50
  IC50: < 10 µM
Human Aurora A; read-out: Aurora A IC50
  IC50: < 100 µM

## COc1ccc(-c2nc(-c3ccccc3C)[nH]c2C(N)=O)cc1 [Example A-6, 4-(4-methoxyphenyl)-2-o-tolyl-1H-imidazole-5-carboxamideHH]
Human FLT4; read-out: FLT4 IC50
  IC50: < 100 µM
Human Aurora A; read-out: Aurora A IC50
  IC50: < 100 µM

## NC(=O)c1nc(-c2c(F)cccc2F)oc1-c1ccc(NCCN2CCOCC2)cc1 [Example F-34, 2-(2,6-difluorophenyl)-5-(4-(2-morpholinoethylamino)phenyl)oxazole-4-carboxamide]
Human FLT4; read-out: FLT4 IC50
  IC50: < 10 µM
Human Aurora A; read-out: Aurora A IC50
  IC50: < 10 µM
